For the experiment, the target named is T1, P-Rex1 DHPH domains (Homo sapiens, UniProt Q8TCU6).
T1 construct: 100 nM EE-P-Rex1 DHPH domains (PREX-in1, compounds 2–10 and 30–128); made in house; host or cells: Sf9 cells (baculovirus)
Nature of the experiment: Liposome-based GEF activity assay, isolated P-Rex1 DHPH domains. Type of experiment: biochemical. The note with it: for remaining activity at 10 µM: 10 µM compound, 100 nM EE-P-Rex1 DHPH domains, 200 nM prenylated EE-Rac1, PREX-in1, compounds 2-10 and 30-128. As for the experimental part: Full-length N-terminally EE-tagged P-Rex1, P-Rex2, the P-Rex1 DH and DHPH domains and the P-Rex2 DH domain were produced in Sf9 cells using baculoviral transduction and were purified using anti-EE beads, as previously described. Briefly, frozen pellets from 500 ml of Sf9 culture infected with P-Rex expressing high-titre baculovirus were resuspended in ice-cold lysis Sf9-cell lysis buffer 2 (1x PBS, 1% Triton X-100, 5 mM EGTA, 1 mM EDTA, 25 mM NaF, 20 mM β-glycerophosphate, 1 mM DTT, 100 µM PMSF, 10 μg/ml each of leupeptin, pepstatin A, aprotinin and antipain) for 5 min and then ultracentrifuged at 118,000 × g for 1 h at 4°C. Supernatants were incubated with pre-washed anti-EE beads for 90 min on ice with end-over-end rotation. Beads were washed 4 times in wash buffer (2x PBS, 0.1% Triton X-100, 1 mM EGTA) and 5 times in elution buffer (1x PBS, 10% glycerol, 1 mM DTT, 1 mM EGTA, 0.01% Na azide), and protein was eluted by incubation with elution buffer containing Ac-EEYMPME peptide as described above. Protein was concentrated in a YM-100 Centricon (Millipore) at 5000 × g at 4°C. Fatty acid-free BSA and glycerol were added to final concentrations of 2 mg/ml and 50%, respectively. Protein concentration and purity were determined by coomassie staining of SDS-PAGE gels. Full-length Tiam1, expressed in and purified from Sf9 cells, was a kind gift from Angeliki Malliri, CRUK Manchester Institute, UK. The ITSN1 DHPH domains and Ect2 DHPH domains, produced in and purified from bacteria, were a kind gift from Kent Rossman, University of North Carolina, Chapel Hill, USA. The DOCK10 DHR2 domain, produced in and purified from bacteria, was a kind gift from Danni Fan, Institute of Cancer Research, London, UK. All small GTPase and GEF proteins were stored in aliquots at −80°C and were snap-frozen in liquid N2 after each use.
Liposome-based GEF activity assays were carried out essentially as described, except that GEFs were incubated with inhibitor compounds prior to the assay. GEFs (full-length P-Rex1, P-Rex2, and Tiam1, P-Rex1 DH and DHPH domains, P-Rex2 DH domain, ITSN1 DHPH domains, ECT2 DHPH domains or DOCK10 DHR2 domain) were diluted in 20 mM HEPES (pH 7.0 at 4°C), 200 mM KCl, 10% ethylene glycerol, 1% betaine, 500 µM EGTA, 0.01% azide. […] The final 10 µl samples contained GTPase, GEF and inhibitor at concentrations as stated, in 20 mM HEPES pH 7.5, 100 mM NaCl, 1 mM MgCl2, 1 mM EGTA, 1 mM DTT, 10 mg/ml fatty acid-free BSA, liposomes consisting of phosphatidylcholine, -serine and -inositol (200 µM each), with or without 10 µM PIP3, 1 µM GTPγS and 80 nM (1 µCi) ^35S-GTPγS. Positive controls contained additionally 2 mM EDTA to induce maximal GTP-loading of the GTPase. Samples were incubated at 30°C for 10 min, and reactions were stopped by the addition of 400 µl ice-cold wash buffer (1x PBS, 1 mM EGTA, 10 mM MgCl2, 1% Triton X-100, 100 µM GTP). Small GTPases were isolated using anti-EE antibody-coupled Sepharose beads or glutathione Sepharose beads, as appropriate, by incubation on ice for 90 min with end-over-end rotation, four washes in ice-cold wash buffer and resuspension of beads in Ultima Gold scintillation fluid (Perkin Elmer). ^35S-GTPγS incorporation was assessed by scintillation counting (Packard 1600TR, Liquid Scintillation Analyser).

SMILES strings stand for the structures. Like-named read-outs stand apart in the source and are kept apart here.

T1 sequence (Q8TCU6 49-392 limits assumed): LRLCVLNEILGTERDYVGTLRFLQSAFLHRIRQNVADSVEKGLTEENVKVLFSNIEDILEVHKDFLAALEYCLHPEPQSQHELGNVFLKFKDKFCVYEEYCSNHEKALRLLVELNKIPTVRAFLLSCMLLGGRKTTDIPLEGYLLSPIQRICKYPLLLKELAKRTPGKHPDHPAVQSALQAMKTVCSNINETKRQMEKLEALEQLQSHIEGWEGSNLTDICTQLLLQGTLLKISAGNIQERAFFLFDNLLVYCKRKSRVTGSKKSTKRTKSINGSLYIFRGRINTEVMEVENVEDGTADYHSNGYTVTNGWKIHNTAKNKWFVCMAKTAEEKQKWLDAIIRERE

Broadly, the remaining activity is what remains of the control signal, in per cent. `CC1CCC(C(C)C)c2nn(C(=O)/C=C\c3ccccc3)c(-c3cccc4ccccc34)c21` (centres unmarked) [#10] came in with a remaining activity at 10 µM of 28%.

Usually inhibition stands for the drop in the measured response relative to a control, in per cent. In general, IC50 refers to the concentration that inhibits the measured activity by half. As to `COc1ccc(-c2[nH]nc3c2C(c2ccc(-c4ccc(Cl)cc4)o2)C(C#N)=C(N)O3)cc1` (centres unmarked) [PREX-in1, 6-amino-4-[5-(4-chlorophenyl)-2-furyl]-3-(4-methoxyphenyl)-2,4-dihydropyrano[2,3-c]pyrazole-5-carbonitrile], the remaining activity at 10 µM came to 3%. Moreover, the inhibition at 10 µM (100 nM DHPH domains, without PIP3, read-out: inhibition of constitutive Rac-GEF activity of isolated P-Rex1 DHPH domains) was found to be 100%. The inhibition at 10 µM (Rho-GEF selectivity panel, 200 nM GTPase, read-out: inhibition of P-Rex1 DHPH Rac-GEF activity) was more than 90%. The half-maximal inhibitory concentration (IC50) (liposome-based GEF assay, 200 nM prenylated EE-Rac2 as substrate, read-out: IC50 of inhibition of P-Rex1 DHPH Rac-GEF activity) is 4.5 µM.

The record behind these values is PMC9645260, “Small-molecule inhibitors of P-Rex guanine-nucleotide exchange factors” (Small GTPases, 2022).
